Experimental data published in patent US9428483B2, “Prodrug of fluorine-containing amino acid” (TAISHO PHARMACEUTICAL CO., LTD., priority 2012, dated 2016).

How the values were obtained:
[1] = Test 4: percent generation of Compound (IV) in human small intestine S9; assay type: in vitro ADME; conditions: 3 μM, 1 mg protein/mL, 37° C. x 1 hr
Procedure: A test to determine the percent generation of Compound (IV) in human intestine S9 was conducted for Inventive Compounds (I) in accordance with the following method.
Inventive Compounds were incubated (37° C.×1 hr) in a 0.1 M phosphate buffer (pH 7.4) together with a human intestine S9 fraction (Xenotech, LLC/CP710571/Lot, 710571) in the presence of Mg^2+ (5 mM), Ca^2+ (5 mM) and Zn^2+ (0.1 mM). The final concentrations of each Inventive Compound and the small intestine S9 protein were adjusted to 3 μM and 1 mg protein/mL, respectively. To the incubated reaction mixture, 3 volumes of DMSO was added, followed by stirring and centrifugation at 3000 rpm (4° C.×10 min). The resulting supernatant was subjected to analysis by a liquid chromatography-tandem mass spectrometry (LC-MS/MS) system. The lower quantitation limit was 0.3 μM for both Inventive Compounds (I) and Compound (IV).
The LC-MS/MS system used in the measurement was equipped with Waters XBridge Amide (3.5 μm, 50 mm×4.6 mm I.D.), Waters Atlantis T3 (3 μm, 50 mm×4.6 mm I.D.), or Shimadzu Shim-pack XR-ODS (2.2 μm, 30 mm×3.0 mm I.D.) as a separation column. The mobile phase was a 0.1% formic acid/acetonitrile solution or a 0.1% formic acid/methanol solution (flow rate: 0.7-1.3 mL/min) and the analyte was eluted in a linear gradient mode. MS/MS detection of Inventive Compounds (I) and Compound (IV) was performed using an API4000 or Triple quad 5500 system with TurbolonSpray interface (both being products of AB SCIEX) in either a positive or negative ion detection mode. The percent generation of Compound (IV) in human small intestine S9 is shown in the following Table 6 with respect to Inventive Compounds.

[2] = Test 1: Solution Stability Test; assay type: physicochemical; conditions: 37° C., one hour, about 50 μg/mL; for Compound's percent residue (%) pH 6.5: 20 mM phosphate buffer (pH 6.5); for Compound's percent residue (%) pH 1.2: hydrochloric acid solution (pH 1.2)
Procedure: Inventive Compounds (I) were tested for their stability in solutions simulating the gastric and small intestine's digestive fluids identified below.
The percent residues of Inventive Compounds (I) in a hydrochloric acid solution (pH 1.2) and 20 mM phosphate buffer (pH 6.5) were measured in accordance with the following test method.
A test compound was dissolved in a hydrochloric acid solution (pH 1.2) containing hydrochloric acid and sodium chloride or a 20 mM phosphate buffer (pH 6.5) containing disodium hydrogenphosphate, sodium dihydrogenphosphate and sodium chloride to prepare a solution with a concentration of about 50 μg/mL (near the solubility if undissolved). The solution was incubated at 37° C. for an hour and the compound's concentration before and after the incubation was quantified by high-performance liquid chromatography to calculate the percent residue of the compound.

[3] = Test 5: plasma concentrations of Compound (IV) in monkey after oral administration; assay type: in vivo, cynomolgus monkeys
Procedure: A test to measure the plasma concentration of Compound (IV) upon oral administration of Compound (IV) and Inventive Compounds (I) was conducted in accordance with the following method.
Compound (IV) or Inventive Compounds (I) was orally administered to male cynomolgus monkeys (fed condition) at a dose of 4.92 μmol/kg (vehicle: 0.5% methyl cellulose (MC) solution; administered at a dose of 5 mL/kg).
Two and 4 hours after the oral administration, approximately 0.7 mL of blood was taken from the cephalic vein (anticoagulant: EDTA-2K). The plasma recovered by centrifugation (3000 rpm, 4° C.×10 min) was stored frozen at −80° C. until use for analysis. In the case of analysis, 50 μL of the plasma sample was thawed under cooling with ice and after adding 200 μL of a liquid acetonitrile/methanol mixture containing an internal standard substance, the resulting mixture was stirred and centrifuged (4° C.×10 min); the resulting supernatant was subjected to LC-MS/MS analysis. The lower quantitation limits of Inventive Compounds (I) and Compound (IV) were 1 ng/mL and 3 ng/mL, respectively.

mGluR3 = mGluR3 (Homo sapiens, UniProt Q14832); conditions: read-out: EC50 value for the agonistic activity for mGluR3; cited from earlier work
mGluR3, sequence (Q14832 23-879): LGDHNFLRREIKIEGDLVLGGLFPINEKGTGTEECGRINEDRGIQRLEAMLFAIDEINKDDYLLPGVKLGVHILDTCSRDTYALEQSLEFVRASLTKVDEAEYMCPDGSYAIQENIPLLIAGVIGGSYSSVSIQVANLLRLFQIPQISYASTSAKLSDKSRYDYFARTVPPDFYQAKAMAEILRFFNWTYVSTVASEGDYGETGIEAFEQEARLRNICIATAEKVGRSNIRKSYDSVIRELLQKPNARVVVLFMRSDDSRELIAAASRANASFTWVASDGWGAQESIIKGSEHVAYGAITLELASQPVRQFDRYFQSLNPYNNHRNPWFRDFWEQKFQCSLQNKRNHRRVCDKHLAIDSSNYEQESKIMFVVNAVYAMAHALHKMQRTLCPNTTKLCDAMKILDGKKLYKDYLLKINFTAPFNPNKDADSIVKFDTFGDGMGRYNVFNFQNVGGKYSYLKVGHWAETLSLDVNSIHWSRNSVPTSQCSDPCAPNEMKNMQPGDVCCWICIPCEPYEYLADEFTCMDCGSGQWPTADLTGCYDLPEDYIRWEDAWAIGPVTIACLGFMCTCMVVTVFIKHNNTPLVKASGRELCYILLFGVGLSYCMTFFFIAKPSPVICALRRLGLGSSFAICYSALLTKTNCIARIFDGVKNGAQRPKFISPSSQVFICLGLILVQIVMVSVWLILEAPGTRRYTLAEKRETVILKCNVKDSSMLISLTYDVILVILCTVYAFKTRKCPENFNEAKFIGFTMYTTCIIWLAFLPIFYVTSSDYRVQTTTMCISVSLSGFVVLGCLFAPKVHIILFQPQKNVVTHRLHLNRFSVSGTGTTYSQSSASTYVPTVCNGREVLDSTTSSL

[4] = test system: conditioned avoidance response; conditions: schizophrenia model; cited from earlier work
[5] = test system: phencyclidine-elicited head-weaving behavior; conditions: schizophrenia model; cited from earlier work
schizophrenia model rat = conditions: cited from earlier work
[6] = Test 2: generation of Compound (IV) in human hepatic microsomes; assay type: in vitro ADME; conditions: human hepatic microsome
Procedure: A test to determine the percent generation of Compound (IV) in human and monkey hepatic microsomes was conducted for Inventive Compounds (I) in accordance with the following method. As a control for comparison, an ethyl ester form of Compound (IV) (Reference Example 1) was used.
A test compound was incubated (37° C.×15 min) in a 0.250 M phosphate buffer (pH 7.4) containing 69 mM KCl, together with a human hepatic microsome (Ms) fraction (Xenotech/H630B/lot, 0810472) or a monkey Ms fraction (BD Biosciences/452413/lot, 94518) in the presence of a NADPH generation system (0.16 mM NADP^+, 2.4 mM MgCl2, 1.5 mM glucose-6-phosphate). The final concentrations of the test compound and hepatic Ms protein were adjusted to 3 μM and 1 mg protein/mL, respectively. To the incubated reaction mixture, 2 volumes of DMSO was added, followed by stirring and centrifugation at 3000 rpm (4° C.×10 min) The resulting supernatant was subjected to analysis by a liquid chromatography-tandem mass spectrometry (LC-MS/MS) system. The lower quantitation limit was 0.3 μM for both the test compound and Compound (IV).

SMILES | Percent generation (%) of Compound IV in human small intestine S9 [1] [%] | Compound's percent residue (%) pH 6.5 [2] [%] | Compound's percent residue (%) pH 1.2 [2] [%] | other results
C[C@H](OC(=O)[C@H]1[C@@H]2C[C@H](F)[C@@](N)(C(=O)O)[C@@H]21)OC(=O)C12CC3CC(CC(C3)C1)C2.Cl | – | – | – | melting point: 164 °C (dec.)
C[C@H](N)C(=O)N[C@]1(C(=O)O)[C@H]2[C@@H](C[C@@H]1F)[C@@H]2C(=O)O.Cl [Ex. D-2, (1S,2S,3S,5R,6S)-2-((S)-2-aminopropanamide)-3-fluorobicyclo[3.1.0]hexane-2,6-dicarboxylic acid hydrochloride] | 17.8 | 103 | 100 | –
N[C@]1(C(=O)O)[C@H]2[C@@H](C[C@@H]1F)[C@@H]2C(=O)O [Compound IV, (1S,2S,3S,5R,6S)-2-amino-3-fluorobicyclo[3.1.0]hexane-2,6-dicarboxylic acid] | – | – | – | oral absorbability ([3]; in monkeys): poor; EC50 (mGluR3): 45.4 nM; effect on conditioned avoidance response [4]: has the effect of suppressing; effect on phencyclidine-elicited head-weaving behavior [5]: has the effect of suppressing; ED50 value, suppressing phencyclidine-elicited hyperactivity (schizophrenia model rat): 5.1 mg/kg
CSCC[C@H](N)C(=O)N[C@]1(C(=O)O)[C@H]2[C@@H](C[C@@H]1F)[C@@H]2C(=O)O.Cl [Ex. D-1, (1S,2S,3S,5R,6S)-2-((S)-2-amino-4-(methylthio)butanamide)-3-fluorobicyclo[3.1.0]hexane-2,6-dicarboxylic acid hydrochloride] | 20.9 | 102 | 103 | Concentration (ng/mL) of Compound IV in monkey plasma, After 2 hr ([3]; oral 4.92 μmol/kg, male cynomolgus monkeys (fed), 2 hr): 141 ng/mL; Concentration (ng/mL) of Compound IV in monkey plasma, After 4 hr ([3]; oral 4.92 μmol/kg, male cynomolgus monkeys (fed), 4 hr): 128 ng/mL
Cl.NCC(=O)N[C@]1(C(=O)O)[C@H]2[C@@H](C[C@@H]1F)[C@@H]2C(=O)O [Ex. D-3, (1S,2S,3S,5R,6S)-2-(2-aminoacetamide)-3-fluorobicyclo[3.1.0]hexane-2,6-dicarboxylic acid hydrochloride] | <10 | 102 | 100 | –
CC[C@H](C)[C@H](N)C(=O)N[C@]1(C(=O)O)[C@H]2[C@@H](C[C@@H]1F)[C@@H]2C(=O)O.Cl [Ex. D-6, (1S,2S,3S,5R,6S)-2-((2S,3S)-2-amino-3-methylpentanamide)-3-fluorobicyclo[3.1.0]hexane-2,6-dicarboxylic acid hydrochloride] | <10 | 101 | 101 | –
CC(C)C[C@H](N)C(=O)N[C@]1(C(=O)O)[C@H]2[C@@H](C[C@@H]1F)[C@@H]2C(=O)O.Cl [Ex. D-7, (1S,2S,3S,5R,6S)-2-((S)-2-amino-4-methylpentanamide)-3-fluorobicyclo[3.1.0]hexane-2,6-dicarboxylic acid hydrochloride] | 11.7 | 102 | 99 | –
CCC[C@H](N)C(=O)N[C@]1(C(=O)O)[C@H]2[C@@H](C[C@@H]1F)[C@@H]2C(=O)O.Cl [Ex. D-4, (1S,2S,3S,5R,6S)-2-((S)-2-amino-4-methylbutanamide)-3-fluorobicyclo[3.1.0]hexane-2,6-dicarboxylic acid hydrochloride] | <10 | 100 | 101 | –
CCOC(=O)[C@H]1[C@@H]2C[C@H](F)[C@@](N)(C(=O)O)[C@@H]21 [Ref. Ex. 1, (1S,2S,3S,5R,6S)-2-amino-6-(ethoxycarbonyl)-3-fluorobicyclo[3.1.0]hexane-2-carboxylic acid] | – | – | – | test compound remaining unchanged [6]: approximately 100%
